Measured values: patent US20050239806A1, “Pyrrolopyrimidine derivatives and analogs and their use in the treatment and prevention of diseases” (Ambit Biosciences Corporation, priority 2004, published 2005)
pIC50, pKd: −log10 of the molar value.

Tests used:
EGFR (L861Q) = biological target: T1, EGFR (L861Q) (Homo sapiens, UniProt P00533, L861Q); assay: Binding of mutant-EGFR (phage-displayed kinase competition binding)
T1 construct: made in house
Excerpt: (§1) Methods for measuring binding affinities for interactions between small molecules and kinases including FLT3, c-KIT, ABL([…]) [a.k.a. ABL([…])], VEGFR-2 (a.k.a. KDR), and EGFR are described in detail in U.S. application Ser. No. 10/873,835, which is incorporated by reference herein in its entirety. The components of the assays include human kinases expressed as fusions to T7 bacteriophage particles and immobilized ligands that bind to the ATP site of the kinases. […] If the test compound binds the kinase it competes with the immobilized ligand and prevents binding to the solid support. […] The results are read out by quantitating the amount of fusion protein bound to the solid support, which is accomplished by either traditional phage plaque assays or by quantitative PCR (qPCR) using the phage genome as a template. […] The concentration of test molecule that reduces the number of phage bound to the solid support by 50% is equal to the Kd for the interaction between the kinase and the test molecule. Typically, data are collected for twelve concentrations of test compound and, the resultant binding curve is fit to a non-cooperative binding isotherm to calculate Kd. Described in the exemplary assays below is data from binding with varying kinases. […] The term “ND” represents non-determined values. […] The Kd for the interaction between the soluble compound (competitor) molecule and EGFR is equal to the concentration of soluble competitor molecule that causes a 50% reduction in the number of phage recovered in the eluate compared to a control sample lacking soluble competitor.

[1] = biological target: T2, EGFR (L747-T751del, Sins) (Homo sapiens, UniProt P00533, DEL747-750/T751S); assay: as above
T2 construct: made in house
Excerpt: as §1

EGFR (G719S) = biological target: T3, EGFR (G719S) (Homo sapiens, UniProt P00533, G719S); assay: as above
T3 construct: made in house
Excerpt: as §1

EGFR (G719C) = biological target: T4, EGFR (G719C) (Homo sapiens, UniProt P00533, G719C); assay: as above
T4 construct: made in house
T4 sequence (P00533 25-1210 G719C): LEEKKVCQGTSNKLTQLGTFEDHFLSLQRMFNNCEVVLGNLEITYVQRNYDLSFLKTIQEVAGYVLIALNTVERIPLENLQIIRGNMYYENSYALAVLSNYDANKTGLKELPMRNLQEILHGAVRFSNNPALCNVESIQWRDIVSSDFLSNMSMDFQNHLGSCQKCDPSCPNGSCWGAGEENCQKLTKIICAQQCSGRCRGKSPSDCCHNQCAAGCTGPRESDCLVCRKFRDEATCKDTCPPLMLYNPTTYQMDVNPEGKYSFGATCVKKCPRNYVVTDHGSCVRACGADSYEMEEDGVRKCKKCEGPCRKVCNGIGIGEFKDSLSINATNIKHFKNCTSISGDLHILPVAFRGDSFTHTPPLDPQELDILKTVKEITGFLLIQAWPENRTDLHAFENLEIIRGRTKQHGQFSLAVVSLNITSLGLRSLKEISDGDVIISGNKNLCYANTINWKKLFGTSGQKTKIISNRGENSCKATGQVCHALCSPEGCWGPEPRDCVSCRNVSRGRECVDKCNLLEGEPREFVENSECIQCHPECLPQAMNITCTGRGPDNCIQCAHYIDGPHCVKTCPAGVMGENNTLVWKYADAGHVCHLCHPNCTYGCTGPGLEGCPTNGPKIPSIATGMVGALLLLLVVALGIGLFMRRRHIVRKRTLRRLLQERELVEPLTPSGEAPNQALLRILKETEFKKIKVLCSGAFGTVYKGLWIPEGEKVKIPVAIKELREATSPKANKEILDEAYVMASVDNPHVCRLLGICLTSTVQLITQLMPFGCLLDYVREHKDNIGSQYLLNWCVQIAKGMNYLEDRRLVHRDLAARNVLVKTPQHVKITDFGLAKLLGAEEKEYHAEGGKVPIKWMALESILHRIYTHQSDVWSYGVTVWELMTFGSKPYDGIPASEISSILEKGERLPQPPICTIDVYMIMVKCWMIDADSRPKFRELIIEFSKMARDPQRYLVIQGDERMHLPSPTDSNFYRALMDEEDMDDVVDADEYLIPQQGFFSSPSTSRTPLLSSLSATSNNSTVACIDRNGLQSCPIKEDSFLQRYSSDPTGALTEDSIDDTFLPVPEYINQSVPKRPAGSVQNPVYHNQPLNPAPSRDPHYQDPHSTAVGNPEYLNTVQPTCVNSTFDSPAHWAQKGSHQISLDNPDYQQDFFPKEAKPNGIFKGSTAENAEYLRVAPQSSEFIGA
Excerpt: as §1

EGFR (S752-1759del) = biological target: T5, EGFR (S752-1759del) (Homo sapiens, UniProt P00533, DEL752-759); assay: as above
T5 construct: made in house
T5 sequence (P00533 with tags, fused parts or gaps DEL752-759 limits assumed): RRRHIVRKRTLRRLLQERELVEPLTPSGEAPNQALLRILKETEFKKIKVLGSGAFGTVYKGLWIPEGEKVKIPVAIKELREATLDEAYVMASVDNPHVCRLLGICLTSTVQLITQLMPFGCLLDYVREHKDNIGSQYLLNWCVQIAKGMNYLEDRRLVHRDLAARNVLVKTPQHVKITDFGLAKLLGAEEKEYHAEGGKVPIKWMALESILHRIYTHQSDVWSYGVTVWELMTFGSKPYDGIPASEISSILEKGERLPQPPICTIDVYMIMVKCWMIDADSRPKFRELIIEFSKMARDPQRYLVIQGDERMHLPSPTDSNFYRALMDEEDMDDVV
Excerpt: as §1

EGFR (E746-A750del) = biological target: T6, EGFR (E746-A750del) (Homo sapiens, UniProt P00533, DEL746-750); assay: as above
T6 construct: made in house
T6 sequence (P00533 with tags, fused parts or gaps DEL746-750): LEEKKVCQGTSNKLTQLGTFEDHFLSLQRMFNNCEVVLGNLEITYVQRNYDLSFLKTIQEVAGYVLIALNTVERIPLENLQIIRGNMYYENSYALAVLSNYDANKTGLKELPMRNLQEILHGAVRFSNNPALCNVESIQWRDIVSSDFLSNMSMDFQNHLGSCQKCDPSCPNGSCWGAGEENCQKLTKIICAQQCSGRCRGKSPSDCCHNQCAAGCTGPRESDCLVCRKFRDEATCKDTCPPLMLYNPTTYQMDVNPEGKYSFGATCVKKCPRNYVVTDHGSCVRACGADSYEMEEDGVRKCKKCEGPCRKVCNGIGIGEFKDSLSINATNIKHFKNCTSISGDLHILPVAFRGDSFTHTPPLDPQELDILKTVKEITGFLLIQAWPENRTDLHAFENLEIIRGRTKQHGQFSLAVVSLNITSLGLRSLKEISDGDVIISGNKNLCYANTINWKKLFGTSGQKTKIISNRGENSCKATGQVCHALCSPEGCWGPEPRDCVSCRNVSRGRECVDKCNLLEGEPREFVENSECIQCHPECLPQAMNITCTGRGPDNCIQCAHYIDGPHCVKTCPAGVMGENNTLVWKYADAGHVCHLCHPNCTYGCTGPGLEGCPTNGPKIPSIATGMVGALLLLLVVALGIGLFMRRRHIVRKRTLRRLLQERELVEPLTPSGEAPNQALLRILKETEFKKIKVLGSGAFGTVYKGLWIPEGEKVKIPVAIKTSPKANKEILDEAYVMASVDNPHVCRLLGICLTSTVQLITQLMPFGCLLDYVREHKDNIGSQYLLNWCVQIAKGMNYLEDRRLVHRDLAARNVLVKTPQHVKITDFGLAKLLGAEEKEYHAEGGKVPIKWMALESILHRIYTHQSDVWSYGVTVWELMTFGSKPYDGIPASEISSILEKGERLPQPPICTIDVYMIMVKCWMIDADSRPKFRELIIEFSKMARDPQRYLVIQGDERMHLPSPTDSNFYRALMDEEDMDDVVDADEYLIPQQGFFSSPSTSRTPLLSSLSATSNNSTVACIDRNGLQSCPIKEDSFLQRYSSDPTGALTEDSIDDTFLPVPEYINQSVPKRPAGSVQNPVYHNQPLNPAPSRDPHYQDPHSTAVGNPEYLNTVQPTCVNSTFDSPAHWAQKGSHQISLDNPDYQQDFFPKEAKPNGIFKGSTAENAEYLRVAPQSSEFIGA
Excerpt: as §1

[2] = biological target: T7, EGFR (L747-T752del, P753S) (Homo sapiens, UniProt P00533, DEL747-752/P753S); assay: as above
T7 construct: made in house
Excerpt: as §1

EGFR (L858R) = biological target: T8, EGFR (L858R) (Homo sapiens, UniProt P00533, L858R); assay: as above
T8 construct: made in house
Excerpt: as §1

[3] = biological target: T9, EGFR (L747-E749del, A750P) (Homo sapiens, UniProt P00533, A750P/DEL747-749); assay: as above
T9 construct: made in house
T9 sequence (P00533 with tags, fused parts or gaps DEL747-749/A750P): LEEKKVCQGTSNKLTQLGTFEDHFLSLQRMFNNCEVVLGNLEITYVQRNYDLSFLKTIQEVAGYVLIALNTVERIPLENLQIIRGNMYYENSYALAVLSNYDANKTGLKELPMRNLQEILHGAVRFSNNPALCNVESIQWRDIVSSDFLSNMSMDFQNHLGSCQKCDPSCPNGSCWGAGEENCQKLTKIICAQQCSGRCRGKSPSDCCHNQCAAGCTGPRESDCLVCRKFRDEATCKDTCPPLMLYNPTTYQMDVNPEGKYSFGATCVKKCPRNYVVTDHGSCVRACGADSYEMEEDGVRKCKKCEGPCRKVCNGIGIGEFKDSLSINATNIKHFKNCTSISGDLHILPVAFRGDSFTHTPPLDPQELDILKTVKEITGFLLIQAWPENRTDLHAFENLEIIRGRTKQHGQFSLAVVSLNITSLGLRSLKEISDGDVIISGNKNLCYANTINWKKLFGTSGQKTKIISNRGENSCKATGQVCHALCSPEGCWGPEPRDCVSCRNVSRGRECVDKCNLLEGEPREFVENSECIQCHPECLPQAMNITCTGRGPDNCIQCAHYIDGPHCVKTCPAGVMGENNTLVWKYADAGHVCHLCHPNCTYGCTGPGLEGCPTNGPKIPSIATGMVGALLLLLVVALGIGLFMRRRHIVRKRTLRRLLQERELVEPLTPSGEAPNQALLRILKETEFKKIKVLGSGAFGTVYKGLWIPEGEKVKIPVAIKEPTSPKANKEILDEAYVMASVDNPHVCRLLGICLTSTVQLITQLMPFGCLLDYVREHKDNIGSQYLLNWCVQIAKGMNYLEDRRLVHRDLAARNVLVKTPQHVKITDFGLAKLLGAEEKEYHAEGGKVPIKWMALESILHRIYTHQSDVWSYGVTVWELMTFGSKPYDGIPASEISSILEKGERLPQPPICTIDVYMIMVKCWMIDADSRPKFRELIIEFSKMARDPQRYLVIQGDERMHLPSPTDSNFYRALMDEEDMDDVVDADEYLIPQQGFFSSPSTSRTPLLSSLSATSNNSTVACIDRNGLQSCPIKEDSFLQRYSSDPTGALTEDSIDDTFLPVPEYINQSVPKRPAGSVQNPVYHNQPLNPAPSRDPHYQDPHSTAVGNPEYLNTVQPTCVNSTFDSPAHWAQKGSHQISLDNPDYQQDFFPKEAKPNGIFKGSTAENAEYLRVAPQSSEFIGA
Excerpt: as §1

[4] = biological target: T10, human EGFR (wildtype), EGFR(DKIN) (Homo sapiens, UniProt P00533); assay: Binding of wildtype-EGFR (T7 phage-displayed kinase competition binding)
T10 construct: Kd for EGFR(DKIN); made in house
Excerpt: as §1

[5] = biological target: T11, EGFR (tyrosine 1173 phosphorylation) in A431 cells (Homo sapiens, UniProt P00533); assay: EGFR Autophosphorylation Inhibition Assay in Epidermoid Carcinoma Cell Line A431; assay type: cell-based; conditions: EGF-induced phosphorylation of tyrosine 1173
T11 construct: endogenous in cells; host or cells: A431
T11 sequence (P00533 25-1210): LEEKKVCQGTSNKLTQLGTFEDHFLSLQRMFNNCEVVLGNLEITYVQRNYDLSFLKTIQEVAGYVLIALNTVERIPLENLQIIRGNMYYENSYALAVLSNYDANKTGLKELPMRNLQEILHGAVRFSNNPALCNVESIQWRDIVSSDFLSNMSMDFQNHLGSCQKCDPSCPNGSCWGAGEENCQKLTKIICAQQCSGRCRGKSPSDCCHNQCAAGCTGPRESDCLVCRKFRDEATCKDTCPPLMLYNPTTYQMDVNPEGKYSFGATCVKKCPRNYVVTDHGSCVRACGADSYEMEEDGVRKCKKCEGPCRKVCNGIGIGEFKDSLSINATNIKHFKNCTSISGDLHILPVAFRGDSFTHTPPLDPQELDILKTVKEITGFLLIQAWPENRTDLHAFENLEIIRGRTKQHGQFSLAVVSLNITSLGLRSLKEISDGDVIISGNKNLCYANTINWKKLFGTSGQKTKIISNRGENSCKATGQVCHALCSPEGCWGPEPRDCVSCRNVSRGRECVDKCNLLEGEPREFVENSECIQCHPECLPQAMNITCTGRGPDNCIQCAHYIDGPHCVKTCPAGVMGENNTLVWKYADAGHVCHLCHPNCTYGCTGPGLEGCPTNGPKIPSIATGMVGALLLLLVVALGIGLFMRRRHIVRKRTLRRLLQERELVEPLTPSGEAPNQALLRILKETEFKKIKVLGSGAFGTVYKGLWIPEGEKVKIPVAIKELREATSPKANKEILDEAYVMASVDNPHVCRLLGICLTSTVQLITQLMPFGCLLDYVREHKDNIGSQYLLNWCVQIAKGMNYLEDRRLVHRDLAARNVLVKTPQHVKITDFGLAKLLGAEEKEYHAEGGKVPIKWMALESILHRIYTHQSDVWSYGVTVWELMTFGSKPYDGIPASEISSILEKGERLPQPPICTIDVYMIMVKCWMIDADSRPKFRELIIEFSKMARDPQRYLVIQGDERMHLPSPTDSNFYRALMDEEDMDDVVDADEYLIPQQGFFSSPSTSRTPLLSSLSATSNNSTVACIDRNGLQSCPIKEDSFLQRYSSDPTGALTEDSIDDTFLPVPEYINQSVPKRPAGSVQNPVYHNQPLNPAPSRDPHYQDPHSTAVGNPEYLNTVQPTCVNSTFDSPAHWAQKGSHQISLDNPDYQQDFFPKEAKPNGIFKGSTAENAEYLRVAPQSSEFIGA
Experimental: (§2) Tyrosine 1173 is a major autophosphorylation site resulting from activation of EGFR by epidermal growth factor (EGF). To determine the capacity of a compound to inhibit this phosphorylation activity of EGFR upon itself, the following methodology was used: 4×10^4 A431 cells/well in a 96-well culture plate or 3.6×10^5 A549 cells/well in a 24-well culture plate were cultured overnight at 37° C. in 5% CO2 in low serum culture medium (DMEM supplemented with 0.5% fetal calf serum, 4.500 mg/L glucose and 100 units/ml penicillin-streptomycin). After 16 hours, the cells were pre-incubated in eight serial 3-fold dilutions of test compound (3.3 μM-0.0017 μM) in addition to vehicle control (final concentration on DMSO vehicle was 1%) for two hours. Cells were stimulated by the addition of 5 ng/ml of EGF for five minutes. Cells were then washed with cold phosphate buffered saline (PBS), and incubated for 30 minutes at 4° C. in lysis buffer. Subsequently, the samples were centrifuged at 6000× RCF for 15 minutes, and the level of phosphorylation of EGFR tyrosine 1173 was measured using a sandwich enzyme-linked immunosorbent assay following the manufacturer's recommended protocols (Biosource, Camarillo, Calif.). Total EGFR levels were also measured in the same manner to control for protein level differences. The reported values are those concentrations of compound required to inhibit EGF-induced phosphorylation of tyrosine 1173 by 50%.

[6] = biological target: T12, EGFR (tyrosine 1173 phosphorylation) in Lung Cancer Cell Line A459 (Homo sapiens, UniProt P00533); assay: EGFR Autophosphorylation Inhibition Assay in Lung Cancer Cell Line A459; assay type: cell-based; conditions: EGF-induced phosphorylation of tyrosine 1173
T12 construct: endogenous in cells
Experimental: as §2

pKd (EGFR (L861Q)) | pKd [1] | pKd (EGFR (G719S)) | pKd (EGFR (G719C)) | pKd (EGFR (S752-1759del)) | pKd (EGFR (E746-A750del)) | pKd [2] | pKd (EGFR (L858R)) | pKd [3] | pKd [4] | pIC50 [5] | pIC50 [6] | Compound
> 7.00 | > 7.00 | > 7.00 | > 7.00 | > 7.00 | > 7.00 | > 7.00 | > 7.00 | > 7.00 | > 7.00 | > 7.00 | 6.00 to 7.00 | Oc1ccc(-c2cc3c(Sc4ccccc4)ncnc3[nH]2)cc1 [Compound L2]
6.00 to 7.00 | > 7.00 | > 7.00 | > 7.00 | > 7.00 | > 7.00 | > 7.00 | > 7.00 | > 7.00 | > 7.00 | 6.00 to 7.00 | 6.00 to 7.00 | Clc1ccc(Sc2ncnc3c2[nH]c2ccccc23)cc1Cl [Compound K5]
> 7.00 | > 7.00 | > 7.00 | > 7.00 | > 7.00 | > 7.00 | > 7.00 | > 7.00 | > 7.00 | > 7.00 | > 7.00 | 6.00 to 7.00 | Oc1ccc(-c2cc3c(Oc4cccc(Br)c4)ncnc3[nH]2)cc1 [Compound E3]
– | – | – | – | – | – | – | – | – | > 7.00 | 5.00 to 6.00 | 5.00 to 6.00 | COc1cccc(-c2cc3c(Sc4ccc(F)cc4)ncnc3[nH]2)c1 [Compound J30]
